The values below come from patent publication US12612424B2, “HPK1 inhibitors and uses thereof” (Regor Pharmaceuticals, Inc., priority 2019, dated 2026).

Each structure is given as a SMILES string. Where two headings read alike, the source gives them in different places.

In one test the target is HPK1 (Homo sapiens, UniProt Q92918). Description: HPK1 biochemical assay (ADP-GLO Kinase Assay). The method in brief: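 HPK1 (0.6 ng/μL final) activity was followed with MBP substrate and 10 μM ATP in Tris pH 7.5/MgCl2/BSA/DTT buffer, measured by ADP-Glo luminescence. Compounds were tested as 3-fold dilutions from 10 μM. IC50 came from a three-parameter logistic fit, with inhibition normalised to high/low controls.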
Background: In ADP-Glo the light output rises with the ADP produced.

The target of the next test is T1, JAK3 (Homo sapiens, UniProt P52333).
T1 construct: purchased Thermo fisher PV3855
Description: JAK3 biochemical assay (ADP-GLO Kinase Assay). The following applies: for JAKs/HPK1 IC50 Ratio, B*: first testing facility. The method in brief:
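Luminescent ADP-Glo readout after a 60 min, 25 °C reaction of JAK3 (0.78 ng) on Poly(E4Y1) (0.2 μg/μL) at 4 μM ATP, Tris pH 7.5 buffer with MgCl2, BSA and DTT. Compounds tested 10 μM down to 0.508 nM in 3-fold steps; % inhibition normalised to DMSO and reference-compound controls, IC50 from three-parameter fit.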

Where [1] appears, read: B*: testing performed in a first testing facility, read-out: HPK1 IC50 (nM) Relative, B*.
[2] abbreviates: B*: testing performed in a first testing facility, read-out: JAK3 IC50 (nM) Relative, B*.
The mark [3] stands for this setting: ratio of JAK3 IC50 to HPK1 IC50.

T1 sequence (P52333 781-1124 limits assumed): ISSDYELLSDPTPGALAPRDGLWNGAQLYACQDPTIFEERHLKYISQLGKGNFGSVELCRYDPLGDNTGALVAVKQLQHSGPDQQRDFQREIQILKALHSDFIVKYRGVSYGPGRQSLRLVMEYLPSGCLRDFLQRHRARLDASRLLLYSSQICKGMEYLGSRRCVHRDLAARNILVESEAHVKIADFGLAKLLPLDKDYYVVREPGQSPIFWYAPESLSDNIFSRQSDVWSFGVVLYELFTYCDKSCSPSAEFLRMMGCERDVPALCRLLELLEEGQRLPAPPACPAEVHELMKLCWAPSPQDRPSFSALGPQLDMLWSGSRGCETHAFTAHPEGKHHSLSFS
Sequence of HPK1 (Q92918 whole entry): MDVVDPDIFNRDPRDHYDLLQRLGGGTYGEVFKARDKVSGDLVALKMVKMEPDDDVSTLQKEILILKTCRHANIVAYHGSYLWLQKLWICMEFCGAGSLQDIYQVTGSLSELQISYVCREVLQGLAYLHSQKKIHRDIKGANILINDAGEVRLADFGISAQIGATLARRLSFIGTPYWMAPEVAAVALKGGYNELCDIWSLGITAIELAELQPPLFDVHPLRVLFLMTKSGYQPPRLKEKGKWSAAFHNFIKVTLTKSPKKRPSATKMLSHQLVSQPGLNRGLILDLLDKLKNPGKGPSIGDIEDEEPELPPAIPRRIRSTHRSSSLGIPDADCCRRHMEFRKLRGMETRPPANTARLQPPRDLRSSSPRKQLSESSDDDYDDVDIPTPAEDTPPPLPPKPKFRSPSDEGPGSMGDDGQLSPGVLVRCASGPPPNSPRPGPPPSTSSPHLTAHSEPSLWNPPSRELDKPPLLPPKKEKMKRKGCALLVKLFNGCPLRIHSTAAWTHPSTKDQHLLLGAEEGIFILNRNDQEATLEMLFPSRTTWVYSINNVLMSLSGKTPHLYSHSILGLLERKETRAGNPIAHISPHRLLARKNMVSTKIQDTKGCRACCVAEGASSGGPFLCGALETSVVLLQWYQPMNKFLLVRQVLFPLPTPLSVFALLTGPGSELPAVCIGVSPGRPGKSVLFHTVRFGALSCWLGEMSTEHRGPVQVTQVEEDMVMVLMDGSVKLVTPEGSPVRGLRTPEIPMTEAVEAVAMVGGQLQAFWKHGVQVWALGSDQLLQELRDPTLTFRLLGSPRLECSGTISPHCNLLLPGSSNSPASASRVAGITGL

By IC50 is commonly meant the concentration that inhibits the measured activity by half. In the case of `CCOC(=O)CC1(C)CN(c2nc(Nc3cc4c(cc3OC)CCN(C)C4)ncc2Cl)c2ccccc21` (centres unmarked) [Example 149], the IC50 on HPK1 (setting [1]) was ≤ 100 nM; at JAK3 (setting [2]), > 1000 nM. The “JAKs/HPK1 IC50 Ratio, B*” value on JAK3 (setting [3]) is listed as >944.
`CNC(=O)C1(C)CN(c2nc(Nc3cc4c(cc3OC)CCN(C)C4)ncc2Cl)c2ccccc21` (centres unmarked) [Example 122]: the IC50 at HPK1 (setting [1]) and on JAK3 (setting [2]) was ≤ 100 nM in each case. For the same molecule, the “JAKs/HPK1 IC50 Ratio, B*” value on JAK3 (setting [3]) stood at 100.
As to `CCN1CCc2cc(OC)c(Nc3ncc(Cl)c(N4CC(C)(CC(=O)O)c5ccccc54)n3)cc2C1` (centres unmarked) [Example 157, 2-(1-(5-Chloro-2-((2-ethyl-6-methoxy-1,2,3,4-tetrahydroisoquinolin-7-yl)amino)pyrimidin-4-yl)-3-methylindolin-3-yl)acetic acid], the IC50 at HPK1 (setting [1]) was ≤ 100 nM; at JAK3 (setting [2]), 100 to 500 nM. Further, the “JAKs/HPK1 IC50 Ratio, B*” value at JAK3 (setting [3]) is 176.
For `COc1cc2c(cc1Nc1ncc(Cl)c(N3CC(C)(C#N)c4ccccc43)n1)CN(C)CC2` (centres unmarked) [Example 121, 1-(5-Chloro-2-((6-methoxy-2-methyl-1,2,3,4-tetrahydroisoquinolin-7-yl)amino)pyrimidin-4-yl)-3-methylindoline-3-carbonitrile] the same measures were ≤ 100 nM, ≤ 100 nM and 50.
For `COc1cc2c(cc1Nc1ncc(Cl)c(N3CC(C)(CC(=O)O)c4ccccc43)n1)CN(C)CC2` (single isomer, unassigned) [Example 148], the IC50 on HPK1 (setting [1]) and on JAK3 (setting [2]) was ≤ 100 nM each time. The “JAKs/HPK1 IC50 Ratio, B*” value at JAK3 (setting [3]) is on record as 209.
With `COc1cc2c(cc1Nc1ncc(Cl)c(N3CCc4ccc(C(F)F)cc43)n1)CN(C)CC2` [Example 91, N-(5-chloro-4-(6-(difluoromethyl)indolin-1-yl)pyrimidin-2-yl)-6-methoxy-2-methyl-1,2,3,4-tetrahydroisoquinolin-7-amine], the IC50 on HPK1 (setting [1]) was ≤ 100 nM; at JAK3 (setting [2]), > 1000 nM. The “JAKs/HPK1 IC50 Ratio, B*” value at JAK3 (setting [3]) was >1500.
In the case of `COC(=O)CC1(C)CN(c2nc(Nc3cc4c(cc3OC)CCN(C)C4)ncc2Cl)c2ccccc21` (centres unmarked) [Example 145], the figures for the IC50 at HPK1 (setting [1]) and at JAK3 (setting [2]) were ≤ 100 nM and > 1000 nM, respectively. At JAK3 (setting [3]), the “JAKs/HPK1 IC50 Ratio, B*” value is listed as 476.
For the molecule `COc1cc2c(cc1Nc1ncc(Cl)c(-n3cc(C4(O)COC4)c4ccccc43)n1)CN(C)CC2` [Example 93], the IC50 on HPK1 (setting [1]) was 100 to 500 nM; at JAK3 (setting [2]), > 1000 nM.
For `COc1cc2c(cc1Nc1ncc(Cl)c(N3CC(CC(=O)O)c4ccccc43)n1)CN(C)CC2` (centres unmarked) [Example 128], the values for the IC50 at HPK1 (setting [1]) and on JAK3 (setting [2]) were ≤ 100 nM and 100 to 500 nM, respectively. Further, on JAK3 (setting [3]), the “JAKs/HPK1 IC50 Ratio, B*” value turned out to be 280.
On the same counts, the results for `COc1ccc2c(c1)N(c1nc(Nc3cc4c(cc3OC)CCN(C)C4)ncc1Cl)CC2C(=O)O` (centres unmarked) [Example 107, 1-(5-Chloro-2-((6-methoxy-2-methyl-1,2,3,4-tetrahydroisoquinolin-7-yl)amino)pyrimidin-4-yl)-6-methoxyindoline-3-carboxylic acid] are ≤ 100 nM, > 1000 nM and 2200.
For the molecule `COc1cc2c(cc1Nc1ncc(Cl)c(N3CCc4cc(C(F)F)ccc43)n1)CN(C)CC2` [Example 90, N-(5-chloro-4-(5-(difluoromethyl)indolin-1-yl)pyrimidin-2-yl)-6-methoxy-2-methyl-1,2,3,4-tetrahydroisoquinolin-7-amine], the IC50 at HPK1 (setting [1]) is ≤ 100 nM; on JAK3 (setting [2]), > 1000 nM. On JAK3 (setting [3]), the “JAKs/HPK1 IC50 Ratio, B*” value was 413.
Take `COc1cc2c(cc1Nc1ncc(Cl)c(N3CCc4cc(P(C)(C)=O)ccc43)n1)CN(C)CC2` [Example 86]: the IC50 on HPK1 (setting [1]) was ≤ 100 nM; at JAK3 (setting [2]), > 1000 nM. Also, at JAK3 (setting [3]), the “JAKs/HPK1 IC50 Ratio, B*” value turned out to be 67.
Take `COc1cc2c(cc1Nc1ncc(Cl)c(N3CC(C)(CC(=O)O)c4ccccc43)n1)CN(C)C2` (centres unmarked) [Example 159, 2-(1-(5-Chloro-2-((6-methoxy-2-methylisoindolin-5-yl)amino)pyrimidin-4-yl)-3-methylindolin-3-yl)acetic acid]: the IC50 at HPK1 (setting [1]) and at JAK3 (setting [2]) was ≤ 100 nM each time. Further, at JAK3 (setting [3]), the “JAKs/HPK1 IC50 Ratio, B*” value is on record as 71.
With `COc1cc2c(cc1Nc1ncc(Cl)c(-n3cc(Cc4nn[nH]n4)c4ccccc43)n1)CN(C)CC2` [Example 135, N-(4-(3-((2H-tetrazol-5-yl)methyl)-1H-indol-1-yl)-5-chloropyrimidin-2-yl)-6-methoxy-2-methyl-1,2,3,4-tetrahydroisoquinolin-7-amine], the IC50 is ≤ 100 nM on HPK1 (setting [1]) and 500 to 1000 nM on JAK3 (setting [2]). Further, at JAK3 (setting [3]), the “JAKs/HPK1 IC50 Ratio, B*” value was determined as 269.
On the same counts, the results for `COc1cc2c(cc1Nc1ncc(Cl)c(N3CC(C)(CO)c4ccccc43)n1)CN(C)CC2` (centres unmarked) [Example 123] are ≤ 100 nM, ≤ 100 nM and 60.
In the case of `COc1cc2c(cc1Nc1ncc(Cl)c(N3CC(C(=O)O)C4(CCCCC4)C3)n1)CN(C)CC2` (centres unmarked) [Example 167, 2-(5-Chloro-2-((6-methoxy-2-methyl-1,2,3,4-tetrahydroisoquinolin-7-yl)amino)pyrimidin-4-yl)-2-azaspiro[4.5]decane-4-carboxylic acid], the values for the IC50 on HPK1 (setting [1]) and on JAK3 (setting [2]) were ≤ 100 nM and > 1000 nM, respectively. The “JAKs/HPK1 IC50 Ratio, B*” value on JAK3 (setting [3]) was determined as 995.
Regarding `COc1cc2c(cc1Nc1ncc(Cl)c(N3CC(CO)c4ccccc43)n1)CN(C)CC2` (centres unmarked) [Example 87], the half-maximal inhibitory concentration (IC50) at HPK1 (setting [1]) was ≤ 100 nM; at JAK3 (setting [2]), 100 to 500 nM.
Regarding `COc1cc2c(cc1Nc1ncc(Cl)c(-n3cnc4ccccc43)n1)CN(C)CC2` [Example 9, N-(4-(1H-benzo[d]imidazol-1-yl)-5-chloropyrimidin-2-yl)-6-methoxy-2-methyl-1,2,3,4-tetrahydroisoquinolin-7-amine], the IC50 on HPK1 (setting [1]) was ≤ 100 nM; at HPK1 (N*: testing performed in a second testing facility, read-out: HPK1 IC50 (nM) Relative, N*) it was ≤ 100 nM; at JAK3 (N*: testing performed in a second testing facility, read-out: JAK3 IC50 (nM) Relative, N*), > 1000 nM. In addition, on JAK3 (ratio of JAK3 IC50 to HPK1 IC50, second testing facility), the “JAKs/HPK1 IC50 Ratio, N*” value is 571.
Regarding `COc1cc2c(cc1Nc1ncc(C#N)c(N3CC(C(=O)O)c4ccccc43)n1)CN(C)CC2` (centres unmarked) [Example 110, 1-(5-Cyano-2-((6-methoxy-2-methyl-1,2,3,4-tetrahydroisoquinolin-7-yl)amino)pyrimidin-4-yl)indoline-3-carboxylic acid], the results for the IC50 at HPK1 (setting [1]) and on JAK3 (setting [2]) were ≤ 100 nM and > 1000 nM, respectively. At JAK3 (setting [3]), the “JAKs/HPK1 IC50 Ratio, B*” value was 477.
In the case of `COC(=O)C1CN(c2nc(Nc3cc4c(cc3OC)CCN(C)C4)ncc2C(F)F)c2ccccc21` (centres unmarked) [Example 112], the results for the IC50 on HPK1 (setting [1]) and on JAK3 (setting [2]) were ≤ 100 nM and > 1000 nM, respectively. For the same molecule, the “JAKs/HPK1 IC50 Ratio, B*” value on JAK3 (setting [3]) is >3309.
Take `COc1cc2c(cc1Nc1ncc(Cl)c(N3CC(C(=O)O)C4(CCCC4)C3)n1)CN(C)CC2` (centres unmarked) [Example 169, 2-(5-Chloro-2-((6-methoxy-2-methyl-1,2,3,4-tetrahydroisoquinolin-7-yl)amino)pyrimidin-4-yl)-2-azaspiro[4.4]nonane-4-carboxylic acid]: the results for the IC50 on HPK1 (setting [1]) and at JAK3 (setting [2]) were ≤ 100 nM and > 1000 nM, respectively. For the same molecule, on JAK3 (setting [3]), the “JAKs/HPK1 IC50 Ratio, B*” value came to 1482.
For `COc1cc2c(cc1Nc1ncc(Cl)c(N3CC(C)(CC(=O)O)c4cc(F)c(F)cc43)n1)CN(C)CC2` (centres unmarked) [Example 154], the IC50 is ≤ 100 nM at HPK1 (setting [1]) and 100 to 500 nM at JAK3 (setting [2]). Further, the “JAKs/HPK1 IC50 Ratio, B*” value on JAK3 (setting [3]) was 430.
For `COc1cc2c(cc1Nc1ncc(Cl)c(N3C[C@](C)(C(=O)O)c4ccccc43)n1)CN(C)CC2` (single isomer, unassigned) [Example 118] the same measures were ≤ 100 nM, > 1000 nM and 80.
On the same counts, the results for `COc1cc2c(cc1Nc1ncc(Cl)c(-c3cn(CC(=O)O)c4ccccc34)n1)CN(C)CC2` [Example 161] are ≤ 100 nM, 500 to 1000 nM and 510.
As to `COc1cc2c(cc1Nc1ncc(Cl)c(N3CC(C(=O)O)c4cc(F)ccc43)n1)CN(C)CC2` (centres unmarked) [Example 104], the IC50 at HPK1 (setting [1]) and on JAK3 (setting [2]) was ≤ 100 nM in each case. For the same molecule, the “JAKs/HPK1 IC50 Ratio, B*” value on JAK3 (setting [3]) amounted to 45.
Turning to `COc1cc2c(cc1Nc1ncc(Cl)c(N3CCc4ccc(Cl)cc43)n1)CN(C)CC2` [Example 18, N-(5-chloro-4-(6-chloroindolin-1-yl)pyrimidin-2-yl)-6-methoxy-2-methyl-1,2,3,4-tetrahydroisoquinolin-7-amine], the IC50 at HPK1 (setting [1]) was ≤ 100 nM; on JAK3 (setting [2]), > 1000 nM. The “JAKs/HPK1 IC50 Ratio, B*” value at JAK3 (setting [3]) is on record as >446.
As to `COc1cc2c(cc1Nc1ncc(Cl)c(N3CC(S(C)(=O)=O)c4ccccc43)n1)CN(C)CC2` (centres unmarked) [Example 81, N-(5-chloro-4-(3-(methylsulfonyl)indolin-1-yl)pyrimidin-2-yl)-6-methoxy-2-methyl-1,2,3,4-tetrahydroisoquinolin-7-amine], the figures for the half-maximal inhibitory concentration (IC50) on HPK1 (setting [1]) and on JAK3 (setting [2]) were ≤ 100 nM and 500 to 1000 nM, respectively. Also, the “JAKs/HPK1 IC50 Ratio, B*” value on JAK3 (setting [3]) was determined as 444.
For `COc1cc2c(cc1Nc1ncc(Cl)c(N3CC(C(=O)NS(C)(=O)=O)c4ccccc43)n1)CN(C)CC2` (centres unmarked) [Example 98], the values for the IC50 on HPK1 (setting [1]) and on JAK3 (setting [2]) were ≤ 100 nM and > 1000 nM, respectively. Besides, the “JAKs/HPK1 IC50 Ratio, B*” value at JAK3 (setting [3]) is on record as 508.
In the case of `COc1cc2c(cc1Nc1ncc(Cl)c(-n3cc(CC(=O)NCC#N)c4ccccc43)n1)CN(C)CC2` [Example 137], the results for the IC50 on HPK1 (setting [1]) and at JAK3 (setting [2]) were ≤ 100 nM and > 1000 nM, respectively. At JAK3 (setting [3]), the “JAKs/HPK1 IC50 Ratio, B*” value is listed as 1304.
